Values belong to the compound of their own block, whether it stands above or below them.
Experiments:
[1] = test system: mouse peritoneal macrophages; assay: Migration assay of peritoneal macrophages (pMø); assay type: cell-based; details: for inhibitory effect of netrin-1 on CCL19-induced migration: macrophages pre-incubated with agent
Experimental: Migration assays. Chemotaxis of macrophages (pMø, RAW264.7) and CaSMC was measured in 96-well Boyden chamber with a 5 μm (macrophages) or 8 μm pore size filter (CaSMC) (Neuro Probe) as previously described (Ly, et al., Proc Natl Acad Sci USA, 2005, 102: 14729-14734). Macrophage chemotaxis was also quantified using a Real-time Cell Invasion and Migration (RT-CIM)×Celligence assay system with monitoring every 5 min (Roche Applied Science). […] In some assays, cells were pretreated with netrin-1 or UNC5b blocking antibody (AF1006, R&D Systems) or Neogenin blocking antibody (Santa Cruz, sc-6537) or control goat IgG (Santa Cruz) for 1 hour prior to migration. Following cell migration for 3 or 16 hours (CaSMC and macrophages, respectively), four random high power fields from each well were counted to determine the number of cells that had migrated into the lower chamber. Migration was expressed as chemotactic index, which was calculated by dividing the number of migrating cells in the treated groups by the number of migrating cells in the lowest control well. Results of chemotaxis assays are representative of at least three independent experiments performed on triplicate samples.

[2] = test system: BMDM; assay: BMDM migration towards MCP-1 (xCelligence); assay type: cell-based, mouse; details: treatment with Unc5b-FC
Experimental: (§1) Macrophage chemotaxis was measured using the Real-Time Cell Invasion and Migration xCelligence Assay System with monitoring every 3 min (Roche Applied Science). BMDM migration towards MCP-1 (100 ng/ml; R&D Systems) was measured in the presence or absence of oxLDL (50 μg/ml) and/or recombinant rat UNC5b-Fc chimera (1006-UN; R&D Systems) to block the effects of netrin-1. In a subset of experiments, cells were pre-treated with 0.1 mmol/L CoCl2 for 1 h prior to migration. J774 macrophage migration was carried out in the presence or absence of UNC5b-Fc chimera. Results of chemotaxis assays are representative of at least three independent experiments performed on triplicate samples.

[3] = test system: peritoneal macrophages; assay: Migration of palmitate-treated peritoneal macrophages to CCL19; assay type: cell-based, mouse; details: addition of Unc5b-FC
Experimental: (§2) Cell culture. Primary bone marrow derived macrophage (BMDM) was prepared by flushing the bone marrow of the tibia and femur of 6-8 week old C57/B6 mice. The cells were grown in DMEM supplemented with 15% L929-conditioned media, 10% FBS and 1% penicillin/streptomycin for 7 days. BMDM were stimulated 250 pM palmitate conjugated with BSA or BSA as a control for 24 hours, or TNFα (10 ng/ml, 410-MT-010; R&D systems), IL-6 (40 nglml, 406-ML-005; R&D systems) and IL-4 (1 Onglml, 404-ML-010; R&D systems) for 24 h. In some assays, differentiated BMDM were treated with conditioned media from 3T3-L1 adipocytes differentiated as described (Lin, et al., J Biol Chem, 2005; 280:4617-4626) and treated with 250 pM palmitate conjugated with BSA or BSA for 24 hours. In certain experiments, anti-TNFα (0.4 μg/ml, AF-410-NA, R&D systems) or anti-IL-6 (0.025 μg/ml, MAB406; R&D systems) blocking antibody or IgG control (Normal Goat IgG: AB-108-C, Rat IgG1: MAB005; R&D systems) was added to conditioned media. Peritoneal macrophages were isolated as described (van Gils, et al., Nat Immunol, 2012; 13:136-143). […]
Migration. The migration of ATM or peritoneal macrophages to CCL19 (500 ng/ml; R&D Systems) was assessed by the xCelligence Real-time Cell Invasion and Migration system (ACEA biosciences Inc) that monitored chemotaxis every 5 minutes for over 6 h. […]

[4] = test system: J774Hif macrophages; assay: J774 macrophage migration (xCelligence); assay type: cell-based, mouse; details: treated with Unc5b-FC, no exogenous chemokine
Experimental: as §1

[5] = test system: BMDMs; assay: Apoptotic assays of growth-factor deprived BMDM (TUNEL, active caspase-3); assay type: cell-based, mouse
Experimental: To induce apoptosis, BMDMs were grown in foe absence of L929 conditioned media (CM) for 3 days under normoxic or hypoxic conditions. In some assays, cells were treated with 100 μmol/L HIF-1α inhibitor or Unc5b-FC fragment or control IgG. After treatment, apoptotic cells were labeled with PE-active caspase-3 (557091, BD pharmingen) or by the TUNEL method using an in situ cell detection kit (Roche Diagnostics). Active Caspase-3, TUNEL and DAPI staining were analyzed with a Nikon Eclipse fluorescent microscope. Only TUNEL positive cells that colocalized with DAPI stained nuclei were considered apoptotic.

[6] = test system: Rac1; assay: Rac1 activation assay; assay type: cell-based, mouse; details: MCP-1 stimulation, within 5 minutes
Experimental: Rac1 activation assays Peritoneal macrophages were seeded in a 6-well plate overnight in regular growth media. The cells were stimulated with MCP-1 (10 ng/ml R&D systems) for 5 minutes with or without a pretreatment with mouse recombinant netrin-1 (250 ng/ml, R&D Systems) for 30 minutes. At the end of stimulation the cells were lysed and Rac1-GTP levels were measured using Rac1 Activation Assay (Cell Biolabs) according manufacturer's instructions.

[7] = test system: human Netrin-1 promoter luciferase reporter construct; assay: Netrin-1 promoter-luciferase assay in HEK293T; assay type: cell-based; details: BAY 11-7082 20 μM pretreatment
Experimental: Netrin-1 Promoter-Luciferase MMV HEK293T were transfected with a human Netrin-1 promoter luciferase reporter construct (SwitchGear Genomics) using Lipofectamine™ 2000 (Invitrogen). After transfection, media was changed and cells were pretreated with the NFKB inhibitor BAY 11-7082 (20 μM) for 1 hour prior stimulation with 100 μg/ml oxLDL or PBS as a control for 24 hours. Luciferase activity was assessed using the Dual-Glo Luciferase Assay System (Promega) and normalized to a constitutively expressed Renilla reporter.

[8] = test system: BMDM; assay: qRT-PCR of BMDM (palmitate, cytokines, adipocyte conditioned media); assay type: cell-based, mouse; details: direct addition of cytokine
Experimental: Real-time Quantitative RT-PCR Analysis RNA (0.5-1 μg) was reverse transcribed using iScript™ cDNA Synthesis Kit (Biorad) and RT-PCR analysis was conducted using kapa SYBR green Supermix (kappa syber) and a Mastercycler Realplex (Eppendorf) the primers used are listed. Fold change in mRNA expression was calculated using the comparative cycle method (ΔΔCt).
Cell culture. Primary bone marrow derived macrophage (BMDM) was prepared by flushing the bone marrow of the tibia and femur of 6-8 week old C57/B6 mice. The cells were grown in DMEM supplemented with 15% L929-conditioned media, 10% FBS and 1% penicillin/streptomycin for 7 days. BMDM were stimulated 250 pM palmitate conjugated with BSA or BSA as a control for 24 hours, or TNFα (10 ng/ml, 410-MT-010; R&D systems), IL-6 (40 nglml, 406-ML-005; R&D systems) and IL-4 (1 Onglml, 404-ML-010; R&D systems) for 24 h. In some assays, differentiated BMDM were treated with conditioned media from 3T3-L1 adipocytes differentiated as described (Lin, et al., J Biol Chem, 2005; 280:4617-4626) and treated with 250 pM palmitate conjugated with BSA or BSA for 24 hours. In certain experiments, anti-TNFα (0.4 μg/ml, AF-410-NA, R&D systems) or anti-IL-6 (0.025 μg/ml, MAB406; R&D systems) blocking antibody or IgG control (Normal Goat IgG: AB-108-C, Rat IgG1: MAB005; R&D systems) was added to conditioned media. Peritoneal macrophages were isolated as described (van Gils, et al., Nat Immunol, 2012; 13:136-143). Mice were injected intraperitoneally with 1 ml of 3% (wt/vol) thioglycolate to elicit sterile sterile peritonitis with macrophage numbers peaking on day 4. Cells were collected by lavage and used for migration assays.
Palmitate-BSA preparation. Sodium palmitate (P9767; Sigma Aldrich) was dissolved in sterile water in to make a 100-mM solution by alternating heating and vortexing until the palmitate was dissolved. Thu occurred once the solution reached 70 C. […]

[9] = test system: Human NTN1 promoter-luciferase reporter; assay: NTN1 promoter luciferase assay (Example 2); assay type: cell-based
Experimental: (§3) Human NTN1 or UNC5B promoter-luciferase reporter plasmids (Switchgear Genomics) were transfected into HEK293T using Lipofectamine™ 2000 (11668-019, Invitrogen). After transfection, media was changed and cells were treated with oxLDL (50 μg/ml) or CoCl2 (0.1 mM), or DMOG (1 mmol/1) for 24 hours, in the presence or absence (PBS control) of inhibitors of NFκB (10 μmol/L Bay11-7082) or HIF1α (100 μmol/L HIF-1α inhibitor). Luciferase activity was measured using foe DUAL-Glo Luciferase Assay system (E1910, Promega) and normalized to a constitutively expressed renilla reporter or to protein concentration.

[10] = test system: BMDMs; assay: qPCR of macrophages under hypoxic stress; assay type: cell-based, mouse
Experimental: Primary bone marrow derived macrophage (BMDM) were prepared by flushing the bone marrow of the tibia and femur of 6-8 week old C57/B6 mice as described (The cells were grown in DMEM supplemented with 15% L929-conditioned media, 10% FBS and 1% penicillin/streptomycin for 7 days and then treated with oxLDL or subjected to hypoxic conditions. Hypoxic incubations were carried out at 37° C. in a Billups-Rothenberg modular incubator chamber at 1% O2, 5% CO2 and 94% N2 for 24 hours. J774 control (J774con) and HIF-1α overexpressing (J774Hif) macrophages (Parathath et al., Circ. Res. 2011; 109:1141-1152) were grown in 5.5 mmol/L glucose containing DMEM supplemented with 15% FBS and 1% penicillin/streptomycin.
Total RNA was isolated using TRIZOL reagent and RNA ([…]) was reverse transcribed with an iScript cDNA Synthesis kit according to the manufacturer's instructions (Bio-Rad). RT-PCR analysis was performed using iQ SYBR green Supermix (Biorad) and a Mastercycler Realplex (Eppendorf) as we described (van Gils et al., Nat Immunol, 2012; 13:136-143). The change in mRNA expression was calculated by the comparative change-in-cycle-method (DDCT) relative to GAPDH mRNA levels. The following primer sets were used;

[11] = test system: Human UNC5B promoter-luciferase reporter; assay: UNC5B promoter luciferase assay (Example 2); assay type: cell-based; details: treatment with HIF-1α inhibitor
Experimental: as §3

[12] = test system: human NTNI promoter-luciferase reporter; assay: NTN1 promoter-luciferase assay (Example 4); assay type: cell-based; details: pretreating with NFkB inhibitor
Experimental: (§4) Promoter-Luciferase assays. HEK293T cells were transfected with human NTNI or Unc5H2 promoter-luciferase reporter constructs (SwitchGear Genomics) using Lipofectamine™ 2000 (11668-019, Invitrogen) After transfection, media was changed and cells were treated with palmitate or BSA for 24 hours, in the presence or absence of the NFkB inhibitor BAY 11-7082 (10 μmol/L). Luciferase activity was measured using the DUAL-Glo Luciferase Assay system (E1910, Promega).

[13] = test system: BMDM; assay: netrin-1 ELISA of BMDM supernatants; assay type: cell-based, mouse; details: blocking NFkB
Experimental: as §2, with “media.” for “media. Peritoneal macrophages were isolated as described (van Gils, et al., Nat Immunol, 2012; 13:136-143).”
ELISA assay. Insulin (90080; crystal Chem Inc), adiponectin (ab108785; Abeam), FFA (SFA-1; Zen Bio), TNFa (88-7064-76; ebiosciences) and netrin-1 (E91827Mu; USCN life science Inc) levels were measured in the serum using mouse standards according to manufacturer's guidelines. Netrin-1 in human serum was measured using a human-specific netrin-1 ELISA from USCN Life Science Inc (700176; mybiosource).

[14] = test system: human Unc5H2 promoter-luciferase reporter; assay: Unc5H2 promoter-luciferase assay (Example 4); assay type: cell-based; details: pretreating with NFkB inhibitor
Experimental: as §4

Compound: Cn1c(=O)c2nc(-c3ccccc3)[nH]c2n(C)c1=O [inhibitor of the A2B adenosine receptor]
inhibitory effect of netrin-1 on CCL19-induced migration [1]: no change

Compound: UNC5b-Fc: recombinant rat UNC5b-Fc chimera (cat #1006-UN, R&D Systems) to block the effects of netrin-1
CoCl2 impairment of macrophage migration to MCP-1 [2]: reversed this effect
migration of palmitate-treated macrophages to CCL19 [3]: restored
migration of J774-HIF cells [4]: comparable to control J774 macrophages
TUNEL and active caspase-3 staining under hypoxic conditions ([5]; growth factor deprived macrophages, Unc5b-FC): increased TUNEL and active caspase-3 staining similar to normoxic controls
inhibition of migration to CCL19 by conditioned medium from oxLDL-treated macrophages ([1]; addition of recombinant UNC5b-Fc): reversed
inhibitory effect of netrin-1 on CCL19-induced migration [1]: reversed the inhibitory effect of netrin-1

Compound: MCP-1: chemokine MCP-1 (R&D Systems)
levels of activated Rac1 [6]: approximately 3 fold

Compound: TNFα
Ntn1 mRNA in BMDMs [8]: increased Ntn1 mRNA

Compound: COC(=O)c1ccc(O)c(NC(=O)COc2ccc(C34CC5CC(CC(C5)C3)C4)cc2)c1 [HIF-1α inhibitor]
oxLDL- and DMOG-induced increase in Ntn1 promoter activity ([9]; presence or absence of HIF-1α inhibitor): dependent on HIF-1α activity
oxLDL-induced Unc5b mRNA in BMDM ([10]; HIF-1α inhibitor): required HIF-1α activity
Unc5b mRNA in response to low oxygen concentration, CoCl2 or DMOG ([10]; pre-treated with HIF-1α inhibitor): no upregulation of Unc5b
increase in Ntn1 mRNA under hypoxia, CoCl2, DMOG or oxLDL ([10]; pretreatment with HIF-1α inhibitor): blocked
protection from apoptosis (TUNEL) under hypoxic conditions ([5]; growth-factor deprived BMDM, HIF-1α inhibitor): reversed
oxLDL-induced increase in Unc5b promoter activity [11]: abrogated

Compound: COC(=O)CNC(=O)C(=O)OC [DMOG, dimethyloxalylglycine]
Ntn1 promoter activity ([9]; HEK293 cells): potently induced

Continued, in another order:

oxLDL induction of netrin-1 promoter activity [7]: inhibited
Compound: Cc1ccc(S(=O)(=O)/C=C/C#N)cc1 [BAY 11-7082]

palmitate-induced Ntn1-promoter luciferase activity [12]: inhibited, in part
palmitate-induced Unc5b-promoter luciferase activity [14]: inhibited, in part
Compound: CC(C)(C)c1ccc(S(=O)(=O)/C=C/C#N)cc1 [BAY 11-7085]
palmitate-induced secretion of netrin-1 by BMDM [13]: inhibited, in part

Reference: patent US20210113687A1, “METHODS FOR TREATING INFLAMMATION” (NEW YORK UNIVERSITY, priority 2013, published 2021)
